The values below come from US6984649B1, “Pyridine derivatives” (Bayer Aktiengesellschaft, priority 2000, dated 2006).

Structures are written as SMILES.

In general, IC50 refers to the concentration that inhibits the measured activity by half.

The subject of this experiment is A549 human lung epithelium cell line. Description: RANTES production in response to TNF-α from A549 cells. It is filed as cell-based. The settings on record: Homo sapiens, A549, A549 cells, 100 ng/ml TNF-α, read-out: Cellular activity grade (A549) (Cellular IC50). In a few lines:
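Cells (4×10^4/well) in D-MEM/10% FCS preincubated 1 h at 37 °C with compound in 1% DMSO, then stimulated with 100 ng/ml TNF-α for 24 h. Supernatant RANTES quantified by Eu-labelled sandwich immunoassay (time-resolved fluorescence, ex 340/em 615 nm) against recombinant human RANTES standard.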
`N#Cc1c(C2CCCNC2)cc(-c2c(O)cccc2OCCCc2ccccc2)nc1N` (centres unmarked) [Example 2-50]: the IC50 is under 1000 nM. To `N#Cc1c(C2CCCNC2)cc(-c2c(O)cccc2OCC(=O)c2ccccc2)nc1N` (centres unmarked) [Example 2-51] belongs under 1000 nM. Consider `N#Cc1c(C2CCNCC2)cc(-c2c(O)cccc2OCCc2ccccc2)nc1N` [Example 2-52], for which the IC50 was under 1000 nM. Consider `N#Cc1c(C2CCCNC2)cc(-c2c(O)cccc2OCC2CCCCC2)nc1N` (centres unmarked) [Example 2-53], for which the concentration for half-maximal inhibition (IC50) was under 1000 nM.

On to `CC(C)Oc1cccc(O)c1-c1cc(C2CCCNC2)c(C#N)c(N)n1` (centres unmarked) [Example 2-54], for which the IC50 is under 1000 nM. To `CCCOc1cccc(O)c1-c1cc(C2CCCNC2)c(C#N)c(N)n1` (centres unmarked) [Example 2-55] belongs under 1000 nM; to `C=CCOc1cccc(O)c1-c1cc(C2CCCNC2)c(C#N)c(N)n1` (centres unmarked) [Example 2-56], under 1000 nM. To `COc1cccc(O)c1-c1cc(C2CCCNC2)c(C#N)c(N)n1` (centres unmarked) [Example 2-57] belongs under 1000 nM; to `CCOc1cccc(O)c1-c1cc(C2CCCNC2)c(C#N)c(N)n1` (centres unmarked) [Example 2-58], under 1000 nM. With `CC(C)COc1cccc(O)c1-c1cc(C2CCCNC2)c(C#N)c(N)n1` (centres unmarked) [Example 2-59], the IC50 is under 1000 nM. On to `CCCCCOc1cccc(O)c1-c1cc(C2CCCNC2)c(C#N)c(N)n1` (centres unmarked) [Example 2-60], for which the IC50 was under 1000 nM.

For the compound `CN1CCCC(c2cc(-c3ccccc3O)nc(N)c2C#N)C1` (centres unmarked) [Example 3-03], the IC50 was under 1000 nM.

With `CCCN1CCCC(c2cc(-c3ccccc3O)nc(N)c2C#N)C1` (centres unmarked) [Example 3-04], the IC50 is 1000 to 10000 nM. Under `N#Cc1c(C2CCCN(Cc3ccccc3)C2)cc(-c2ccccc2O)nc1N` (centres unmarked) [Example 3-05] stands under 1000 nM; under `N#Cc1c(C2CCCN(CCc3ccccc3)C2)cc(-c2ccccc2O)nc1N` (centres unmarked) [Example 3-06], 1000 to 10000 nM; under `COc1ccc(CN2CCCC(c3cc(-c4c(O)cccc4O)nc(N)c3C#N)C2)cc1` (centres unmarked) [Example 3-07], 1000 to 10000 nM. Under `COc1ccc(CN2CCCC(c3cc(-c4c(O)cccc4OCC4CC4)nc(N)c3C#N)C2)cc1` (centres unmarked) [Example 3-08] stands over 10000 nM. Under `Nc1nc(-c2c(O)cccc2OCc2ccccc2)cc(C2CCCNC2)c1CO` (centres unmarked) [Example 12-02] stands 1000 to 10000 nM; under `CCCOc1cccc(O)c1-c1cc(C2CCCNC2)c(CO)c(N)n1` (centres unmarked) [Example 12-03], under 1000 nM; under `CC(C)(C)COc1cccc(O)c1-c1cc(C2CCCNC2)c(CO)c(N)n1` (centres unmarked) [Example 12-04], under 1000 nM.

Regarding `Nc1nc(-c2c(O)cccc2OCC2CC2)cc(C2CCNCC2)c1CO` [Example 12-05], the IC50 was under 1000 nM. `CCCOc1cccc(O)c1-c1cc(C2CCNCC2)c(CO)c(N)n1` [Example 12-06]: the IC50 was under 1000 nM. With `CC(C)CCCOc1cccc(O)c1-c1cc(C2CCNCC2)c(CO)c(N)n1` [Example 12-07], the IC50 was under 1000 nM.

For the compound `O=C1Nc2nc(-c3c(O)cccc3F)cc(C3CCCNC3)c2CO1` (centres unmarked) [Example 18-07], the IC50 is under 1000 nM. Turning to `O=C1Nc2nc(-c3ncccc3O)cc(C3CCCNC3)c2CO1` (centres unmarked) [Example 18-08], the IC50 is under 1000 nM. Under `Cc1cc(-c2c(O)cccc2OCC2CC2)nc2c1COC(=O)N2` [Example 18-09] stands under 1000 nM; under `O=C1Nc2nc(-c3c(O)cccc3OCc3ccccc3)cc(C3CCCNC3)c2CO1` (centres unmarked) [Example 18-10], under 1000 nM; under `CCCOc1cccc(O)c1-c1cc(C2CCCNC2)c2c(n1)NC(=O)OC2` (centres unmarked) [Example 18-11], under 1000 nM. Under `O=C1Nc2nc(-c3c(O)cccc3O)cc(C3CCNCC3)c2CO1` [Example 18-12] stands over 10000 nM.

`O=C1Nc2nc(-c3c(O)cccc3OCC3CC3)cc(C3CCNCC3)c2CO1` [Example 18-13]: the IC50 was under 1000 nM. Turning to `CCCOc1cccc(O)c1-c1cc(C2CCNCC2)c2c(n1)NC(=O)OC2` [Example 18-14], the IC50 is under 1000 nM. To `CC(C)CCCOc1cccc(O)c1-c1cc(C2CCNCC2)c2c(n1)NC(=O)OC2` [Example 18-15] belongs under 1000 nM.

As to `O=C1Nc2nc(-c3c(O)cccc3OCc3ccccc3)cc(C3CCNCC3)c2CO1` [Example 18-16], the IC50 is 1000 to 10000 nM. Consider `CC(=O)NCc1c(C2CCCNC2)cc(-c2ccccc2O)nc1N` (centres unmarked) [Example 23-04], for which the IC50 is under 1000 nM.

Take `Nc1nc(-c2ccccc2O)cc(C2CCCNC2)c1CNC(=O)C1CC1` (centres unmarked) [Example 23-05]: the IC50 was under 1000 nM. Under `CCC(=O)NCc1c(C2CCCNC2)cc(-c2ccccc2O)nc1N` (centres unmarked) [Example 23-06] stands 1000 to 10000 nM. Under `CC(=O)NCc1c(C2CCNCC2)cc(-c2c(O)cccc2OCC2CC2)nc1N` [Example 23-07] stands under 1000 nM.

Turning to `CC(C)OC(=O)NCc1c(C2CCCNC2)cc(-c2c(O)cccc2OCC2CC2)nc1N` (centres unmarked) [Example 23-08], the IC50 is under 1000 nM. To `CC(C)COC(=O)NCc1c(C2CCCNC2)cc(-c2c(O)cccc2OCC2CC2)nc1N` (centres unmarked) [Example 23-09] belongs under 1000 nM; to `CC(C)(C)COC(=O)NCc1c(C2CCCNC2)cc(-c2c(O)cccc2OCC2CC2)nc1N` (centres unmarked) [Example 23-10], under 1000 nM. To `CN(C)C(=O)NCc1c(C2CCCNC2)cc(-c2c(O)cccc2OCC2CC2)nc1N` (centres unmarked) [Example 23-11] belongs under 1000 nM; to `CCCNC(=O)NCc1c(C2CCCNC2)cc(-c2c(O)cccc2OCC2CC2)nc1N` (centres unmarked) [Example 23-12], under 1000 nM; to `NC(=O)NCc1c(C2CCCNC2)cc(-c2c(O)cccc2OCC2CC2)nc1N` (centres unmarked) [Example 23-13], under 1000 nM. `Nc1nc(-c2c(O)cccc2OCC2CC2)cc(C2CCCNC2)c1CNC(=O)Nc1ccccc1` (centres unmarked) [Example 23-14]: the IC50 is under 1000 nM. As for `Nc1nc(-c2c(O)cccc2OCC2CC2)cc(C2CCCNC2)c1CNC(=S)Nc1ccccc1` (centres unmarked) [Example 23-15], the IC50 was under 1000 nM. Under `CC(C)OC(=O)N1Cc2c(C3CCCNC3)cc(-c3c(O)cccc3OCC3CC3)nc2NC1=O` (centres unmarked) [Example 24-05] stands under 1000 nM. With `CC(C)COC(=O)N1Cc2c(C3CCCNC3)cc(-c3c(O)cccc3OCC3CC3)nc2NC1=O` (centres unmarked) [Example 24-06], the IC50 is under 1000 nM.

For the compound `CC(C)(C)COC(=O)N1Cc2c(C3CCCNC3)cc(-c3c(O)cccc3OCC3CC3)nc2NC1=O` (centres unmarked) [Example 24-07], the IC50 was under 1000 nM.

With `CN(C)C(=O)N1Cc2c(C3CCCNC3)cc(-c3c(O)cccc3OCC3CC3)nc2NC1=O` (centres unmarked) [Example 24-08], the IC50 was under 1000 nM. As to `NC(=O)N1Cc2c(C3CCCNC3)cc(-c3c(O)cccc3OCC3CC3)nc2NC1=O` (centres unmarked) [Example 24-10], the IC50 was under 1000 nM.
